Consider four substances from article PMC11182572, “Mining Bovine Milk Proteins for DPP-4 Inhibitory Peptides Using Machine Learning and Virtual Proteolysis” (Research, 2024).

Assay [1] deals with T1, DPP-4 (Homo sapiens, UniProt P27487).
T1 construct: purchased Sigma-Aldrich Co., St. Louis, MO, USA
Put plainly: DPP-4 inhibitory activity (Gly-Pro-p-nitroanilide substrate). In kind it is biochemical. The settings on record: for IC50: 25 μl sample + 25 μl Gly-Pro-p-nitroanilide (3.2 mM), preincubated 37 °C 10 min, 50 μl DPP-4 (0.02 U/ml), 60 min, 100 mM tris buffer (pH 7.6), absorbance at 405 nm. Here is the method:
Determination of DPP-4 inhibitory activity
The DPP-4 inhibitory activity of the synthesized peptides was determined as previously described, with slight modifications. Briefly, 25 μl of the sample and 25 μl of Gly-Pro-p-nitroanilide (3.2 mM) were preincubated at 37 °C for 10 min before 50 μl of DPP-4 (0.02 U/ml) was added to the mixture (Sigma-Aldrich Co., St. Louis, MO, USA). After 60 min, the reaction was halted by adding 100 μl of 1 M sodium acetate solution. The absorbance at 405 nm was measured using a microplate reader (Thermo Fisher Scientific, Waltham, MA, USA). DPP-4 inhibition (DI) was calculated as follows: DI%=1−Asample−Asample blank/Apositive−Anegative×100% (5) where A(sample) represents the optical density of DPP-4 in the presence of both the substrate and peptide. A(sample blank) represents the optical density of the 100 mM tris buffer (pH 7.6). A(positive) represents the optical density of the enzyme and substrate in the absence of an inhibitor. A(negative) represents the optical density of the enzyme in the absence of substrate and inhibitor.

Assay [2] addresses T1, DPP-4. The following applies: methodologies differ among studies; cited from earlier work.

For orientation: IC50 means the concentration that inhibits the measured activity by half.

Like-named read-outs stand apart in the source and are kept apart here. No end group written: not given here.

T1 sequence (P27487 whole entry, species assumed): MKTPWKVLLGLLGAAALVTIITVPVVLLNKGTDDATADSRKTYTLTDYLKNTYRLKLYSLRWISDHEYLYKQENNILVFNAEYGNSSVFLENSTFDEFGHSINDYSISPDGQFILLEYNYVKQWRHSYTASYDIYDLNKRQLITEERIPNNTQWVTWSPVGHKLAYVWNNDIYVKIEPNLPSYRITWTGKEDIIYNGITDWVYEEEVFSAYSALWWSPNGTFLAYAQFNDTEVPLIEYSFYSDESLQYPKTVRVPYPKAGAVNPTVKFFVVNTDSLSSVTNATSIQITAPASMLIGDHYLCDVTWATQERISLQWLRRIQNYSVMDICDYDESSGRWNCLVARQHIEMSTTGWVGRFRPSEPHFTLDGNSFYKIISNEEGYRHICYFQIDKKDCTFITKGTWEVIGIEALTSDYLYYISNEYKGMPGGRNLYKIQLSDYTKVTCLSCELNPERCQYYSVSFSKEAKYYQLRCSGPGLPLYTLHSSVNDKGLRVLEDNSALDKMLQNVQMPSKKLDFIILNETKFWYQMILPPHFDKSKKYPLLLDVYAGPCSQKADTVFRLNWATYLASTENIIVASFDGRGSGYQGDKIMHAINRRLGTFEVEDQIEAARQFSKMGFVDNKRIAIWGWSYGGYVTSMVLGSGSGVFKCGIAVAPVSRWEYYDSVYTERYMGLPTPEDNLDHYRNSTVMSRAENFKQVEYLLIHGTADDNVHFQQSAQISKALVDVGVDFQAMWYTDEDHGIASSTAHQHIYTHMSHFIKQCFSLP

For the substance “FVAPFPEV [peptide from α-S1-casein, pepsin (pH 1.3), pepsin (pH > 2); synthesized]”, the “DPP-4 inhibitory effect (in words)” value at DPP-4 [1] (in vitro) is given as “poor inhibitory effect”. Take GPVRGPF [GPVRGPF]: on DPP-4 [1], the IC50 turned out to be 645 µM. Same read-out and setting: next, HPHPHL [HPHPHL]: 1610 µM.

Turning to “TPEVDDEALEK [peptide from previous study [6]]”, the IC50 with DPP-4 [2] was 320 µM.
